In series [1] the test system is mouse embryonic fibroblast (NIH 3T3) cells. Kind of series: MTT cytotoxicity assay, NIH 3T3. In kind it is cell-based. The following applies: concentrations as high as 5 mM, 24 hours of incubation. How it is done: (§1) FIG. 8, comprising FIGS. 8A-8B, is a set of bar graphs illustrating biocompatibility profiles of BRAP assessed by MTT assay in human embryonic kidney (HEK 293) cells (FIG. 8A) and mouse embryonic fibroblast (NIH 3T3) cells (FIG. 8B).
(§2) 3-(4,5-Dimethylthiazil-2yl)-2,5-diphenyltetrazolium bromide (MTT) assay was performed to evaluate the cytotoxicity of BRAP. NIH 3T3 cells were cultured at a density of 1×10^5 cells/well in a 24 well plate, and RAW 264.7 cells and HEK cells were also cultured at a density of 2×10^5 cells/well in a 24 well plate. Cells were incubated for 24 hours to reach ˜80% confluency. Cells were treated with various amount of BRAP and incubated for 24 hours. Each well was given 100 μL of MTT solution and was incubated for 4 h. 200 μL of dimethyl sulfoxide (DMSO) were added to each well to dissolve the resulting formazan crystals. After 10 min incubation, the absorbance at 570 nm was measured using a microplate reader (Biotek Instruments, Winooski, Vt.). The cell viability was determined by comparing the absorbance of BRAP treated cells that of control cells.

Series [2] is described as follows: Activation of BRAP by H2O2, UV spectroscopy (absorbance at 273 nm). The format is physicochemical. The following applies: after 90 minutes of treatment with H2O2. Here is the method:
The activation of BRAP by H2O2 was also studied using UV spectroscopy. BRAP was mixed with H2O2 and the change in UV absorbance was monitored over time.
BRAP was dissolved in PBS (pH 7.4) at a concentration of 1 mM and was incubated at 37° C. in the presence of 100 μM of H2O2. The concentration of HBA generated from BRAP was measured using a UV spectrometer at appropriate time points.

For series [3], the system named is human embryonic kidney (HEK 293) cells. Description: MTT cytotoxicity assay, HEK 293. The format is cell-based. To be noted: concentrations as high as 5 mM, 24 hours of incubation. How it is done: as §1, §2
In general terms: Tetrazolium assays rely on reduction of a dye to a coloured formazan, in cell work by metabolically active cells.

Series [4] concerns mouse macrophage (RAW264.7) cells. Kind of series: MTT cytotoxicity assay, RAW264.7. To be noted: concentrations as high as 5 mM, 24 hours of incubation. The format is cell-based. How it is done: FIG. 3, comprising FIGS. 3A-3B, is a set of bar graphs illustrating biocompatibility profiles of BRAP assessed by MTT assay in mouse macrophage (RAW264.7) cells (FIG. 3A) and ARVC (FIG. 3B). FIG. 19 is a bar graph showing the results of assessing cytotoxicity of BRAP-encapsulated PLGA microparticles against RAW264.7 cells in vitro. Cell viability was determined by the 3-(4,5-dimethylthiazil-2yl)-2,5-diphenyltetrazolium bromide (MTT) assay 24 hours after addition of BRAP-encapsulated PLGA microparticles to cells. “PB” represents BRAP-encapsulated PLGA microparticles. The percentages indicate the weight content of BRAP in the particles. Values shown represent mean±s.d. (n=4). […] 3-(4,5-Dimethylthiazil-2yl)-2,5-diphenyltetrazolium bromide (MTT) assay was performed to evaluate the cytotoxicity of BRAP. NIH 3T3 cells were cultured at a density of 1×10^5 cells/well in a 24 well plate, and RAW 264.7 cells and HEK cells were also cultured at a density of 2×10^5 cells/well in a 24 well plate. Cells were incubated for 24 hours to reach ˜80% confluency. Cells were treated with various amount of BRAP and incubated for 24 hours. […] After 10 min incubation, the absorbance at 570 nm was measured using a microplate reader (Biotek Instruments, Winooski, Vt.). The cell viability was determined by comparing the absorbance of BRAP treated cells that of control cells.

In series [5] the test system is nitric oxide production in LPS-treated cells. Kind of series: Nitric oxide generation in LPS-treated cells (Griess reaction). The following applies: time and dose-dependent. The format is cell-based. How it is done:
(§3) FIG. 4, comprising FIGS. 4A-4F, is a set of graphs, bar graphs and images illustrating anti-oxidant and anti-inflammatory effects of BRAP in vitro. […] The generation of ROS was monitored by flow cytometry as an indicator of DCF fluorescence. Fluorescence was analyzed in 10,000 cells with excitation at 480 nm and emission at 530 nm. FIG. 4C: Protective effect of BRAP on H2O2— stimulated adult rat cardiomyocytes. V=vehicle, *<0.05 vs. V+H2O2 (n=4). […] (n=4/group).
Nitric oxide is one of major sources of oxidative stress and a well-known pro-inflammatory mediator in the pathogenesis of inflammation (Lundberg, et al., 1997, Nature Medicine 3:30). The effects of BRAP on the generation of nitric oxide in LPS-treated cells were studied using a colorimetric assay based on the Griess reaction.

Series [6] can be described thus: Water solubility of isolated BRAP. To be noted: white powder as obtained. The format is physicochemical. The text has this: H2O2-activable anti-oxidant prodrug BRAP was synthesized by reacting (4-(hydroxymethyl)phenyl)boronic acid and 2-(hydroxymethyl)-2-methylpropane-1,3-diol at room temperature (FIG. 1A). BRAP was obtained as white water-soluble powder and its chemical structure was confirmed by ^1H NMR (FIG. 1B).

Series [7] has as its system H2O2-stimulated adult rat cardiomyocytes. Kind of series: Protection from H2O2-induced cell death in ARVC. The format is cell-based. The following applies: H2O2 0.25 mM; concentration dependent; vs vehicle. Here is the method:
as §3
Since cardiovascular disease is one of the most common and clinically relevant problems associated with oxidative stress injury, the effect of BRAP on cellular protection from the H2O2-induced cell death was further examined using ARVC in vitro.

Consider `CC1(CO)COB(c2ccc(CO)cc2)OC1` [BRAP, (4-(5-(hydroxymethyl)-5-methyl-1,3,2-dioxaborinan-2-yl)phenyl)methanol], for which the “cytotoxicity (MTT)” value in series [1], in series [3] and in series [4] was “no significant cytotoxicity” in each case. The “change in UV absorbance (HBA generation)” value in series [2] is recorded as “no further increase in UV absorbance”. For the same compound, the “inhibition of nitric oxide production” value in series [5] is “inhibitory effects”. Besides, in series [6], the water solubility result was “water-soluble”. Besides, the “protection from H2O2-induced cell death” value in series [7] is “significant protection”.
